This passage reports Ki results from BindingDB's records for doi:10.1016/s0960-894x(01)00758-2 (University of St. Andrews, 2002).

This test can be described thus: Tested for binding affinity against kynureninase enzyme from bacterial cells.

On to `NC(CC(O)c1cccc(O)c1)C(=O)O` (stereo unspecified) [2-amino-4-[3'-hydroxyphenyl]-4-hydroxybutanoic acid], for which the Ki was 10 µM.
